Holding throughout (format): in vivo, rat (Wistar)
The subject of data set [1] is ovariectomized female rats, suffering from inflammation (OVX inf). Kind of data set: Femur bone mineral density in ovariectomized female rats with talc-induced inflammation. The settings on record: OVX inf female Wistar rats. How it is done: (§1) The experiment was conducted on 40 female rats Wistar aged 6 months, amongst which thirty were ovariectomized (OVX) and 10 pseudo-operated (SH). Animals were placed in metabolic cages enabling to separately collect the urines at a controlled temperature of 21±1° C., according to a 12 h-12 h nyctohemeral cycle. Following the surgical operation at Day0, animals were accustomed for seven days to a basic semisynthetic diet (INRA, Jouy-en-Josas, France), supplemented with 2.5% groundnut oil and 2.5% rapeseed oil and humidified to 1 ml water per gram powder. At the end of this adaptation period, the rats were separated in four homogeneous batches according to weight parameters and were fed for 72 days 22 g per day of following diets: • Batch SH/10 pseudo-operated female rats fed control diet (basic diet supplemented with 2.5% groundnut oil and 2.5% rapeseed oil), • Batch OVXinf: 10 ovariectomized female rats fed control diet, • Batch OL: 10 ovariectomized female rats fed control diet supplemented with 0.015% oleuropein. • Batch HO: 10 ovariectomized female rats fed basic diet supplemented with 5% extra-virgin olive oil.
(§2) Oil storage was kept away from light. Feed was prepared once a week and stored at +4° C.
At D55, that is 3 weeks before the end of the experiment, an inflammation was induced in each batch, except in control batch (SH). Four talc subcutaneous injections (3.2 g magnesium silicate (Sigma) suspended in […] physiological saline) were administrated in 4 distinct sites of the animal back.
The day of sacrifice (D80), animals were anesthetized with a chloral intraperitoneal injection (Fluka/8% solution, 0.4 ml/100 g of live weight). Blood samples were collected at abdominal aorta for dosing orosomucoid (inflammation marker, in particular of the acute phase for humans and rats (Fournier and al. 2000), that is produced by lever and other extra-hepatic sites under the control of II1, TNFα and II6 cytokines).
Femurs were collected and removed from adjacent soft tissues, then kept in 80% ethanol for bone density determination.

Data set [2] has the same test system. Kind of data set: Body weight and uterine weight in ovariectomized female rats with talc-induced inflammation (senile osteoporosis model). The settings on record: OVX inf female Wistar rats. How it is done:
as §1, §2
(§3) At D55, that is 3 weeks before the end of the experiment, an inflammation was induced in each batch, except in control batch (SH). […]

Data set [3] shares this test system. The data set can be described thus: Inflammation markers (plasma orosomucoid, spleen weight) in ovariectomized female rats with talc-induced inflammation. The conditions noted are these: OVX inf female Wistar rats; diet for 72 days; sacrifice D80; mean ± SEM. How it is done: as §1, §2, §3
The mark [4] stands for this setting: diet with 0.015% oleuropein or 5% extra-virgin olive oil for 72 days, sacrifice D80, mean ± SEM.
[5] abbreviates: femur, oleuropein diet for 72 days.

Take `C/C=C1/[C@H](O[C@@H]2O[C@H](CO)[C@@H](O)[C@H](O)[C@H]2O)OC=C(C(=O)OC)[C@H]1CC(=O)OCCc1ccc(O)c(O)c1` [oleuropein]: the “total bone mineral density (femur)” value in data set [1] (setting [4]) was 0.2258±0.0028 g/cm^2. In addition, in data set [1] (setting [5]), the “bone cortical substance density” value is given as “increase” and the “bone trabecular substance density” value is “increase”. The uterotrophic effect result in data set [2] (diet for 72 days, judged from uterine weight) was “free from any uterotrophic effect”. In addition, in data set [2] (setting [4]), the uterine weight is given as 0.034±0.001 g uterus/100 g body weight. For the same compound, the spleen weight in data set [3] is reported as 0.201±0.011 g spleen/100 g body weight.

The values above are taken from patent US20060193931A1, “Nutritional or therapeutic composition containing the compound oleuropeine or one of the derivatives thereof” (priority 2003, published 2006).
